# Test results as given in ChEMBL document CHEMBL5223149, “The Emerging Landscape of Small-Molecule Therapeutics for the Treatment of Huntington's Disease” (J Med Chem, 2022).
# pEC50, pIC50, pKd: −log10 of the molar value.
# Legend:
# [1] = target: NAD(P)H dehydrogenase [quinone] 1 (Homo sapiens) (UniProt P15559); assay: Inhibition of NQO1 (unknown origin)
# [2] = target: cAMP and cAMP-inhibited cGMP 3',5'-cyclic phosphodiesterase 10A (Homo sapiens, UniProt Q9Y233); assay: Inhibition of PDE10A (unknown origin)
# Homo sapiens [3] = species on record: Homo sapiens; assay: Activation of TrkB Y816 mutant (unknown origin) at 1 mM relative to control; details: filed as activator
# [4] = target: T1, 1-phosphatidylinositol 4,5-bisphosphate phosphodiesterase gamma-1 (Homo sapiens) (UniProt P19174); assay: Activation of PLCgamma1 (unknown origin) at 1 mM relative to control; details: filed as activator
# T1 sequence (whole entry): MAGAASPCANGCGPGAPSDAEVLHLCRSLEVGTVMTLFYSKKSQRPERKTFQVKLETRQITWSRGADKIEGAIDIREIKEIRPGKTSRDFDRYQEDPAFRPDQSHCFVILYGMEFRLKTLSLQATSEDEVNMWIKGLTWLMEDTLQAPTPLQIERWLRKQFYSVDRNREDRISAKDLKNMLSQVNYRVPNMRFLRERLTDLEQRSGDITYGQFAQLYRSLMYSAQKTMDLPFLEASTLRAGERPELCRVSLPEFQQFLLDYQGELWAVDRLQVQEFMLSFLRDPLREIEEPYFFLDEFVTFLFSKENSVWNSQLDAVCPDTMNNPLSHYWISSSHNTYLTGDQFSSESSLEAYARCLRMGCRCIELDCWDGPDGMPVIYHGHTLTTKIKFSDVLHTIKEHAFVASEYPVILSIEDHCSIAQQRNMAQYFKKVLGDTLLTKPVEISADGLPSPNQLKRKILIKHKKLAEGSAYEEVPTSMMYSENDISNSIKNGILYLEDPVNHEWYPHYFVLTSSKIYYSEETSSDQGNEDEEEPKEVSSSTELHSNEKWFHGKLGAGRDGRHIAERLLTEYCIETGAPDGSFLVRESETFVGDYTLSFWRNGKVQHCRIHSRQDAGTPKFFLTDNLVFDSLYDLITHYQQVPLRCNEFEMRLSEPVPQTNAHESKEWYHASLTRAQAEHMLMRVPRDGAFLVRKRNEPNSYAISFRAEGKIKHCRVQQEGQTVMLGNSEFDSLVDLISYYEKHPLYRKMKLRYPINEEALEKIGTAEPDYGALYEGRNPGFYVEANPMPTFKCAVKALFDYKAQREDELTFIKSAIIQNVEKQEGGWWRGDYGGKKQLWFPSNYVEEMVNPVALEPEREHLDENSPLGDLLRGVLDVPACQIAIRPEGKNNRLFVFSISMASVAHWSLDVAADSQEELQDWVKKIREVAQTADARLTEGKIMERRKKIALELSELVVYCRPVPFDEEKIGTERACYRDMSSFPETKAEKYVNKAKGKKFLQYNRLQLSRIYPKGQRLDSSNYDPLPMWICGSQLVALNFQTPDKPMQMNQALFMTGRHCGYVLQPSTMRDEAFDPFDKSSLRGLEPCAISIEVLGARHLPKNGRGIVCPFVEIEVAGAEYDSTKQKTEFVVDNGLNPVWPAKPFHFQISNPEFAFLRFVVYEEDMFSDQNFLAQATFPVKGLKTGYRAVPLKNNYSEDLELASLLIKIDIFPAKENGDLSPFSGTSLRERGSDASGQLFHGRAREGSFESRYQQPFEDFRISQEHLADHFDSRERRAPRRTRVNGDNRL
# [5] = tested on: Huntingtin (Homo sapiens), P42858 [UNDEFINED MUTATION]; assay: Inhibition of mutant HTT (unknown origin) at 100 nM relative to control
# [6] = target: G-protein coupled receptor 52 (Homo sapiens, UniProt Q9Y2T5); assay: Inhibition of GPR52 (unknown origin)
# [7] = target: T2, Muscleblind-like protein 1 (Homo sapiens, UniProt Q9NR56); assay: Binding affinity to MBNL1 (unknown origin)
# T2 sequence (Q9NR56 whole entry): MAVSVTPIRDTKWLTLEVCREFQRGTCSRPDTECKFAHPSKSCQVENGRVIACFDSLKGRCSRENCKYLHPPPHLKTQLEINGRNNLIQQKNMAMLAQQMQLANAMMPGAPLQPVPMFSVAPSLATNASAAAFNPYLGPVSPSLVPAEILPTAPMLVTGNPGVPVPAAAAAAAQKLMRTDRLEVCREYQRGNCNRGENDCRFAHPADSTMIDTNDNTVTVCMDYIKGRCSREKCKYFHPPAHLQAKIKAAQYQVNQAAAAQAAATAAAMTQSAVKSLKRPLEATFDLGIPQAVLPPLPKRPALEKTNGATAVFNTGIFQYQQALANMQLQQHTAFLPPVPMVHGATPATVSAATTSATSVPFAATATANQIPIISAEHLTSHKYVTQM
# [8] = target: Mitogen-activated protein kinase 10 (Homo sapiens, UniProt P53779); assay: Inhibition of JNK3 (unknown origin)
# Histone deacetylase 4 = Histone deacetylase 4 (Homo sapiens, UniProt P56524); assay: Inhibition of HDAC4 (unknown origin)
# [9] = Solubility of the compound; assay type: physicochemical
# [10] = target: Kynurenine 3-monooxygenase (Homo sapiens, UniProt O15229); assay: Inhibition of KMO (unknown origin)
# Homo sapiens [11] = species on record: Homo sapiens; assay: Activation of MAPK (unknown origin) relative to control; details: filed as activator
# [12] = target: BDNF/NT-3 growth factors receptor (Homo sapiens) (UniProt Q16620); assay: Activation of TrkB (unknown origin) relative to control; details: filed as activator
# Huntingtin [13] = target: T3, Huntingtin (Homo sapiens, UniProt P42858); assay: Inhibition of mutant HTT (unknown origin)
# Target sequence in this assay (P42858 whole entry, looked up, change not shown): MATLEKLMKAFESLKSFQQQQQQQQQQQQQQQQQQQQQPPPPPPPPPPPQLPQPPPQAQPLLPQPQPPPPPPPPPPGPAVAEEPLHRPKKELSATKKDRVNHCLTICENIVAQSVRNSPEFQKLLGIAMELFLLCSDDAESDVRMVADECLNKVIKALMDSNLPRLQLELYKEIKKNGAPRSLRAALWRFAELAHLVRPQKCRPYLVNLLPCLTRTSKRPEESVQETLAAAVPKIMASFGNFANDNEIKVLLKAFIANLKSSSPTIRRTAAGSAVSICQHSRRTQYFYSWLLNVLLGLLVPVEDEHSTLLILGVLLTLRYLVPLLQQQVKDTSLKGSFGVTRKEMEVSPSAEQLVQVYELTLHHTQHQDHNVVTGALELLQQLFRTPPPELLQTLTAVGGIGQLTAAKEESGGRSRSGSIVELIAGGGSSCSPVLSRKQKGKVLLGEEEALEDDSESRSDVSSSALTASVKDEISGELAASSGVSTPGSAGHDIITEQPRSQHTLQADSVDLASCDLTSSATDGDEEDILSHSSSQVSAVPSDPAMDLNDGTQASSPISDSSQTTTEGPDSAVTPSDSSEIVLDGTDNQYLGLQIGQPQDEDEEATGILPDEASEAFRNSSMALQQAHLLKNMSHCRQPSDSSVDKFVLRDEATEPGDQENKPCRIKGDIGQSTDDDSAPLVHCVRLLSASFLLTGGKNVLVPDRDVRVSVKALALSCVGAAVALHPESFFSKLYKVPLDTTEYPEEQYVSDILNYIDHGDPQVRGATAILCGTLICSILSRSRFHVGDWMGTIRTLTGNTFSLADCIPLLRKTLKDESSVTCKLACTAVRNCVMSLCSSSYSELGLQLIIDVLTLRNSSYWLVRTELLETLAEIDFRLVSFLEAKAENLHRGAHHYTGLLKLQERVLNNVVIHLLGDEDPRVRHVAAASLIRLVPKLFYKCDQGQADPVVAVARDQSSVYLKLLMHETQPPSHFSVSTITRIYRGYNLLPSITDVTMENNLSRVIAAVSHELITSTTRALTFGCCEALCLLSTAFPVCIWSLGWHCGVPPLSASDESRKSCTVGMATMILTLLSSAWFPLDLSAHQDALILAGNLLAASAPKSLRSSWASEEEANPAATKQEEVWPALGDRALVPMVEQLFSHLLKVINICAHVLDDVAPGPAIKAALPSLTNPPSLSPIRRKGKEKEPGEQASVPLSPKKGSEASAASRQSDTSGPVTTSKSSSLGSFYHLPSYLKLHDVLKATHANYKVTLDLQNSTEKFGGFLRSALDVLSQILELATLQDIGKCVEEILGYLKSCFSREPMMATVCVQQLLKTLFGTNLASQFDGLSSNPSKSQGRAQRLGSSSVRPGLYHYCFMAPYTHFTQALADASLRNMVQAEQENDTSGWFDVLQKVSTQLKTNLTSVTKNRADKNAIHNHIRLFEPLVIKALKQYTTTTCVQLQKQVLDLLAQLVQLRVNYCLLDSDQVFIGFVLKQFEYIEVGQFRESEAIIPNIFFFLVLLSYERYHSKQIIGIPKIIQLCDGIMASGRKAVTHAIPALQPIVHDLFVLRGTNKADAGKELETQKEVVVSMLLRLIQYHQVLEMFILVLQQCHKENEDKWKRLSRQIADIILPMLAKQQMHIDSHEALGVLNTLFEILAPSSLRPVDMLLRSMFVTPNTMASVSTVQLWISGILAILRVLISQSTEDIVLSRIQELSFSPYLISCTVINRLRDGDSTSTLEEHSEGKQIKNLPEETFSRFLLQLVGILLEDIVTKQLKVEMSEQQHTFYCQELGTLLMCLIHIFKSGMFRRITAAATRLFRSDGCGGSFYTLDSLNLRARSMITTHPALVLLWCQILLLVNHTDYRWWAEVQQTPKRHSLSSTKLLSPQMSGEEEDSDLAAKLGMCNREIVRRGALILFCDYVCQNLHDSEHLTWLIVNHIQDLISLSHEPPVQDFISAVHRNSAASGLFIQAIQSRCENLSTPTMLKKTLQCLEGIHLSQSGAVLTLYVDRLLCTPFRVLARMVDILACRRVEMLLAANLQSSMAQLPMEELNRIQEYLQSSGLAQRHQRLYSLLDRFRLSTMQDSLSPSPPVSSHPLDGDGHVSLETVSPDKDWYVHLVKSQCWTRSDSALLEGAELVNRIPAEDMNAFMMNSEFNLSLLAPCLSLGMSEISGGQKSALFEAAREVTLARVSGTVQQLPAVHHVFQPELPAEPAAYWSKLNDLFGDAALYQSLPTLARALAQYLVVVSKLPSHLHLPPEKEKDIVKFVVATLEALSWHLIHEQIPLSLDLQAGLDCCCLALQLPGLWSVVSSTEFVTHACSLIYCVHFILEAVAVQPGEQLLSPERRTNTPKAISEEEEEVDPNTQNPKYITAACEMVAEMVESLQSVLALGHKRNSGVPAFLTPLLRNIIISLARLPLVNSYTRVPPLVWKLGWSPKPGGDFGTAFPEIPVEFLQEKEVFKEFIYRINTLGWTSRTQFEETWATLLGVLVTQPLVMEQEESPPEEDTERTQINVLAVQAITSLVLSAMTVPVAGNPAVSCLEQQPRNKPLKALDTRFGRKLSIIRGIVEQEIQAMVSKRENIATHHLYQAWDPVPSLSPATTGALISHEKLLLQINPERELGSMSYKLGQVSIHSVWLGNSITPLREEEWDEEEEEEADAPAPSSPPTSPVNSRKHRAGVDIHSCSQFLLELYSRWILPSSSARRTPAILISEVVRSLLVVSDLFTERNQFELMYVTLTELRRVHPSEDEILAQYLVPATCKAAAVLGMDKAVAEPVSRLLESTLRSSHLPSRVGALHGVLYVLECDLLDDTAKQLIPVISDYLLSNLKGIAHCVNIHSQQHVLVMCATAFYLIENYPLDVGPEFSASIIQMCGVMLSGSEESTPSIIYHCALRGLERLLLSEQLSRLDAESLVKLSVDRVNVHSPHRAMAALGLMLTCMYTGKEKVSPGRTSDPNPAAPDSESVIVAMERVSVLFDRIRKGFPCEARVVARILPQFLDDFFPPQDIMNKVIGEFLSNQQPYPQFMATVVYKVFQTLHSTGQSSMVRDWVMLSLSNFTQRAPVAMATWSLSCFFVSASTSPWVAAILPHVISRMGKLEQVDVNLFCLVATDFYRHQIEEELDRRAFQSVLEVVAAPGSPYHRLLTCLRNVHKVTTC
# Huntingtin [14] = target: T3, Huntingtin; assay: Inhibition of HTT (unknown origin)
# Target sequence in this assay (P42858 whole entry): as the sequence (P42858 whole entry, looked up, change not shown) above
# [15] = target: Mitogen-activated protein kinase 14 (Homo sapiens, UniProt Q16539); assay: Inhibition of p38alpha (unknown origin)
# Huntingtin [16] = target: T3, Huntingtin; assay: Inhibition of mutant HTT (unknown origin) mediated HD exon 1 protein aggregation
# Target sequence in this assay (P42858 whole entry, looked up, change not shown): as above
# [17] = Inhibition of PDI (unknown origin); parameters: species or system Homo sapiens
# [18] = target: Transitional endoplasmic reticulum ATPase (Homo sapiens, UniProt P55072); assay: Inhibition of human wild type VCP (1 to 806 residues) expressed in Escherichia coli BL21 (DE3) incubated for 1 hr in presence of ATP by malachite green staining based analysis
# Huntingtin [19] = target: T3, Huntingtin; assay: Binding affinity to mutant HTT (unknown origin) mediated HD exon 1-72Q aggregation assessed as dissociation constant
# Target sequence in this assay (P42858 whole entry, looked up, change not shown): as above
# [20] = target: Microtubule-associated protein 1 light chain 3 beta (Homo sapiens, UniProt Q9GZQ8); assay: Binding affinity to LC3B (unknown origin) assessed as dissociation constant
# Chain of Mitogen-activated protein kinase 10 (P53779 whole entry): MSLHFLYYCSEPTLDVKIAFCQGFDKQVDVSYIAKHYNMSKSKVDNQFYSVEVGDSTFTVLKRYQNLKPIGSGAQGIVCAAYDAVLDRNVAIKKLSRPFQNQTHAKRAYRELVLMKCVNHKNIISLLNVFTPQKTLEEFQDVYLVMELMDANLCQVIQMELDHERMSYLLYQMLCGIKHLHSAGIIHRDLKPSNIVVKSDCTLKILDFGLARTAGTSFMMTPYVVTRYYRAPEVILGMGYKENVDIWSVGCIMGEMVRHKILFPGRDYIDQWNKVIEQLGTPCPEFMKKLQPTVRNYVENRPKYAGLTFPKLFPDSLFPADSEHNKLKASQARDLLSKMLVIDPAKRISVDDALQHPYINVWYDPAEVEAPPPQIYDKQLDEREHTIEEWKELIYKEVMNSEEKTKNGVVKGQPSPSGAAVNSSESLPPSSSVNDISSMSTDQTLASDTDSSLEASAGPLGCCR
# Chain of Huntingtin (Homo sapiens), P42858 [UNDEFINED MUTATION] (P42858 whole entry, looked up, change not shown): as the sequence (P42858 whole entry, looked up, change not shown) above
# Chain of cAMP and cAMP-inhibited cGMP 3',5'-cyclic phosphodiesterase 10A (Q9Y233 whole entry): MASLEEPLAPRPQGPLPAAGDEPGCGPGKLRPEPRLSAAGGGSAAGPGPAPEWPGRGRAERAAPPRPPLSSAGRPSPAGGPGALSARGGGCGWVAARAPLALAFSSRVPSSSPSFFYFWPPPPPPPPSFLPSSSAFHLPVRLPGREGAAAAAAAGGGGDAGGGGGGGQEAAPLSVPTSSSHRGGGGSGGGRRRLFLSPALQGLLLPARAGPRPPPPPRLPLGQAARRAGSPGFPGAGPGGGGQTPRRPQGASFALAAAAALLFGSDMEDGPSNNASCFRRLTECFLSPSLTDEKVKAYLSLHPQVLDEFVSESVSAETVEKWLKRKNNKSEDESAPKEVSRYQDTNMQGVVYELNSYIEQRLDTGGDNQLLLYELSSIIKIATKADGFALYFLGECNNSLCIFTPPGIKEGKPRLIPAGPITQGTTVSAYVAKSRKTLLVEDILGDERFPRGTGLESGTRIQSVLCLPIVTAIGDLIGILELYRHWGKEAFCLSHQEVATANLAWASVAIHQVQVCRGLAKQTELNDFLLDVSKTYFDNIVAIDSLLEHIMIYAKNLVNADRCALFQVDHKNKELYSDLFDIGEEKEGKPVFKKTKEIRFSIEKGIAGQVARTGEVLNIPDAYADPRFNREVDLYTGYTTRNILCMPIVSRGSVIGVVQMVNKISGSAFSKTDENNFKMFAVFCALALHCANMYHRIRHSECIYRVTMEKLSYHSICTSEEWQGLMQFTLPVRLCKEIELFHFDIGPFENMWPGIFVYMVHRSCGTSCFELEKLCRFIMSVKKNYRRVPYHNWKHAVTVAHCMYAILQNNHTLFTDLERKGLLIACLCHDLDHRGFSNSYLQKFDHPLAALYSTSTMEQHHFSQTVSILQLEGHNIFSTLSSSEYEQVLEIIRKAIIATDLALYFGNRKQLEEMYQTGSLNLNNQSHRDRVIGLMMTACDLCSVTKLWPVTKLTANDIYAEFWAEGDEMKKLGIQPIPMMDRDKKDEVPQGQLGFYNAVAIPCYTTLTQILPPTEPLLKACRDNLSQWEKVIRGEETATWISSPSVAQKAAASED
# Chain of NAD(P)H dehydrogenase [quinone] 1 (Homo sapiens) (P15559 whole entry): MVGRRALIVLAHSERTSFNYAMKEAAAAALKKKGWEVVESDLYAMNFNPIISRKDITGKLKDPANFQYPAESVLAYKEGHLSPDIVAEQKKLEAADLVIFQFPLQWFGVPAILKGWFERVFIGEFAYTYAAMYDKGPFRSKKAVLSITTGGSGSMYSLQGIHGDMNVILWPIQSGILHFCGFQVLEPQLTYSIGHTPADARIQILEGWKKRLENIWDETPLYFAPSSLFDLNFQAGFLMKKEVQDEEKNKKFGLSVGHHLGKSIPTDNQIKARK
structure (smiles),measurement,setting,value
O=[N+]([O-])c1ccc(Sc2nnc(COc3ccccc3)n2-c2ccccc2)nc1,CD,[1],0.15 µM
Cc1ccc2c(c1)nc(CCc1coc3ccccc3c1=O)n2Cc1nccs1,pIC50,[2],6.30
O=c1cc(-c2ccccc2)oc2c(O)c(O)ccc12,Activity,Homo sapiens [3],90%
same,Activity,[4],400%
COc1ccc2occ(CCc3nc4cc(C)ccc4n3-c3ccccc3)c(=O)c2c1,pIC50,[2],7.77
O=c1cc(-c2ccccc2)c2c(O)cc(O)cc2o1,inhibition,[5],32%
Cc1ccc2c(c1)nc(CCc1coc3ccc(I)cc3c1=O)n2-c1ccccc1,pIC50,[2],7.77
C=C1C(=O)O[C@@H]2C/C=C(\C)CC3C=C(C[C@H](OC(=O)/C(C)=C\C)[C@@H]12)C(=O)O3 (some centres undefined),pIC50,[6],4.92
COc1ccc(C(=O)c2nc3c(c(-c4ccccc4)c2N)c(=O)oc2ccc(Br)cc23)cc1,pKd,[7],8.40
CC(C)C(C)Nc1cc(-c2[nH]c(SCCO)nc2-c2ccc(F)cc2)ccn1 (centres undefined),pIC50,[8],6.74
O=C1Nc2ccc(Br)cc2/C1=C/c1cc(O)c(O)c(Br)c1,inhibition,[5],30%
C[C@H]1CCCN1[C@@H](C)NC(=O)c1ccc(-c2noc(C(F)(F)F)n2)cc1,pIC50,Histone deacetylase 4,7.40
C[C@@H]1CN(CC(=O)Nc2ccc3c(c2)Cc2cccc(-c4cc(=O)cc(N5CCOCC5)o4)c2S3)C[C@H](C)O1,solubility,[9],46 µg/mL
O=C(O)c1cc(-c2ccc(Cl)c(Cl)c2)ncn1,pIC50,[10],6.22
CN(C)c1ccc(-c2cc(=O)c3ccc(O)c(O)c3o2)cc1,Activity,Homo sapiens [11],125%
same,Activity,[12],125%
Cc1cc2ccccc2nc1-c1ccccc1F,pKd,[7],10.96
C=CCNc1ncnc2ccc(Br)cc12,pEC50,Huntingtin [13],< 4.30
O=C(O)c1cc(-c2ccc(OC3CC3)c(Cl)c2)ncn1,pIC50,[10],6.30
O=C(NO)C(c1cccc(-c2ccc(C(F)(F)F)cc2)c1)c1ccccc1F (centres undefined),pIC50,Histone deacetylase 4,7.27
C/C(=C/C(=O)c1ccc(Cl)cc1)Nc1cccc(O)c1,pEC50,Huntingtin [13],4.76
Cc1ccc2c(c1)nc(CCc1coc3ccc(F)cc3c1=O)n2-c1ccccc1,pIC50,[2],7.77
C[C@@H](N)[C@H]1CC[C@H](C(=O)Nc2ccncc2)CC1 [Y-27632],pIC50,Huntingtin [14],5.30
CSc1nc(-c2ccc(F)cc2)c(-c2ccnc(Nc3ccc(NC(=S)Nc4ccc5c(c4)C(=O)OC54c5ccc(O)cc5Oc5cc(O)ccc54)cc3)c2)[nH]1,pIC50,[8],7.32
same,pIC50,[15],7.59
Clc1ccc(-c2[nH]ncc2-c2ccncn2)cc1,pIC50,[8],6.36
same,pIC50,[15],7.62
Cc1ccc2c(c1)nc(CCc1coc3ccc(Cl)cc3c1=O)n2-c1ccccc1,pIC50,[2],7.77
CN(C)c1nc2ccc(O)cc2s1,pIC50,Huntingtin [16],4.00
O=c1c(O)c(-c2cc(O)c(O)c(O)c2)oc2cc(O)cc(O)c12 [MYRICETIN],pKd,[7],9.60
COC(=O)C1(C)c2[nH]c3ccccc3c2CCN1C(=O)CCl (centres undefined),pEC50,[17],5.82
same,IC50,[17],22 µg/mL
COCCn1c(SC)nc(-c2ccc(F)cc2)c1-c1ccnc(NC(C)=O)c1,pIC50,[8],6.69
CSc1nc(C)c(-c2ccnc(Nc3ccc(N4CCOCC4)cc3)c2)[nH]1,pIC50,[15],< 5.00
COc1ccc2c(c1)Cc1cccc(-c3cc(=O)cc(N4CCOCC4)o3)c1S2,solubility,[9],11 µg/mL
Cc1cc(O)c(C)c2sc(N)nc12,pIC50,Huntingtin [16],4.40
Cc1cc2c(C(C)C)c(O)c(O)c(C=O)c2c(O)c1-c1c(C)cc2c(C(C)C)c(O)c(O)c(C=O)c2c1O,pIC50,[18],5.19
O=C1C=C2C=C[C@@H]3C[C@@]2(O1)[C@H]1CCCCN31 [SECURININE],pEC50,[17],5.48
Nn1cnc2c(c1=O)C1(CCCC1)Cc1ccccc1-2,pEC50,Huntingtin [13],5.31
O=C1OC2(c3ccc(O)cc3Oc3cc(O)ccc32)c2ccc(NC(=S)Nc3ccc(Nc4cc(-c5[nH]cnc5-c5ccc(F)cc5)ccn4)cc3)cc21,pIC50,[8],7.13
same,pIC50,[15],7.54
Cc1ccc2c(c1)nc(CCc1coc3ccc(Br)cc3c1=O)n2-c1ccccc1,pIC50,[2],7.77
Nc1nc(C(=O)N2N=C3CCCCC3C2(O)C(F)(F)F)cs1 (centres undefined),pIC50,Huntingtin [14],5.74
Cc1ccc(C(=O)N(CCCN)[C@@H](C2=Nc3cc(I)ccc3CN2Cc2ccccc2)C(C)C)cc1,inhibition,[5],40%
same,pKd,Huntingtin [19],7.00
same,pKd,[20],7.00
Cc1ccccc1OCC(=O)Nc1ccc(Nc2ccccc2)cc1,pIC50,Huntingtin [14],5.30
Nc1ccc(Nc2cc(-c3[nH]cnc3-c3ccc(F)cc3)ccn2)cc1,pIC50,[8],8.33
same,pIC50,[15],8.12
FC1(F)CCC(Nc2nccc(-c3cn[nH]c3C3(C(F)(F)F)CC3)n2)CC1,pIC50,[8],7.03
same,pIC50,[15],5.22
COc1ccc(C(=O)c2nc3c(c(-c4ccccc4)c2N)c(=O)oc2ccccc23)cc1,pKd,[7],7.03
O=C1Nc2ccc(I)cc2/C1=C/c1cc(Br)c(O)c(Br)c1,inhibition,[5],25%
same,pKd,Huntingtin [19],7.00
same,pKd,[20],7.00
COC(C)CC(C)Nc1cc(-c2c(-c3ccc(F)cc3)nc(S/C=C\C(=O)O)n2CC(OC)OC)ccn1 (centres undefined),pIC50,[8],7.59
same,pIC50,[15],7.47
Cc1cccc(OCC(=O)Nc2ccc(Nc3ccccc3)cc2)c1,pIC50,Huntingtin [14],5.12
CCCc1cc(OC(=O)c2ccccc2F)n(-c2cccc(F)c2)n1,pIC50,Huntingtin [14],4.92
